Assay results published in US6844443B2, “Benzimidazole derivatives, their production and use” (Takeda Pharmaceutical Company, Ltd., priority 1990, dated 2005).

Key:
[1] = Heat stability of solid forms (Experimental Example 1); type: physicochemical; details: solid form of 1-(cyclohexyloxycarbonyloxy)ethyl ester
From the text: 1-(Cyclohexyloxycarbonyloxy)ethyl 2-ethoxy-1-[[2′-(1 H-tetrazol-5-yl)biphenyl-4-yl]methyl]benzimidazole-7-carboxylate is usually purified by column chromatography on silica gel and the eluted fraction is concentrated to dryness to give amorphous powders. […] For solving this problem, the present inventors made extensive experiments on crystallization of the subject compound and discovered C-type crystalline form. […] The C-type crystal of the title compound has approximately the following lattice spacings: […]

| Structure (SMILES) | melting point | heat stability of solid form [1] |
| --- | --- | --- |
| CCCC(=O)OCOC(=O)c1cccc2nc(OCC)n(Cc3ccc(-c4ccccc4-c4nnn[nH]4)cc3)c12 [Working Example 52, Butyryloxymethyl 2-ethoxy-1-[[2′-(1 H-tetrazol-5-yl)biphenyl-4-yl]methyl]benzimidazole-7-carboxylate] | 96 to 100 °C | – |
| CCOc1nc2cccc(C(=O)OC(C)OC(=O)OC3CCCCC3)c2n1Cc1ccc(-c2ccccc2-c2nnn[nH]2)cc1 (centres unmarked) [amorphous powders, 1-(Cyclohexyloxycarbonyloxy)ethyl 2-ethoxy-1-[[2′-(1 H-tetrazol-5-yl)biphenyl-4-yl]methyl]benzimidazole-7-carboxylate] | – | unstable by heat |
| CCOc1nc2cccc(C(=O)OCOC(=O)C(C)C)c2n1Cc1ccc(-c2ccccc2-c2nnn[nH]2)cc1 [Working Example 53, Isobutyryloxymethyl 2-ethoxy-1-[[2′-(1 H-tetrazol-5-yl)biphenyl-4-yl]methyl]benzimidazole-7-carboxylate] | 143 to 145 °C | – |
| CCOc1nc2cccc(C(=O)OC(C)OC(=O)OC3CCCCC3)c2n1Cc1ccc(-c2ccccc2-c2nnn[nH]2)cc1 (centres unmarked) [C-type crystal] | – | stable by heat |
| CCOc1nc2cccc(C(=O)OC(C)OC(C)=O)c2n1Cc1ccc(-c2ccccc2-c2nnn[nH]2)cc1 (centres unmarked) [Working Example 55, 1-Acetoxyethyl 2-ethoxy-1-[[2′-(1 H-tetrazol-5-yl)biphenyl-4-yl]methyl]benzimidazole-7-carboxylate] | 105 to 107 °C | – |

Continued, in another order:

| melting point | Structure (SMILES) | heat stability of solid form [1] |
| --- | --- | --- |
| 85 to 87 °C | CCOC(=O)OC(C)OC(=O)c1cccc2nc(OCC)n(Cc3ccc(-c4ccccc4-c4nnn[nH]4)cc3)c12 (centres unmarked) [Working Example 54, 1-(Ethoxycarbonyloxy)ethyl 2-ethoxy-1-[[2′-(1 H-tetrazol-5-yl)-biphenyl-4-yl]methyl]benzimidazole-7-carboxylate] | – |
| 130 to 135 °C | CCNc1nc2cccc(C(=O)OCOC(=O)C(C)(C)C)c2n1Cc1ccc(-c2ccccc2-c2nnn[nH]2)cc1 [Working Example 62, Pivaloyloxymethyl 2-ethylamino-1-[[2′-(1 H-tetrazol-5-yl)biphenyl-4-yl]methyl]benzimidazole-7-carboxylate] | – |
| 74 to 76 °C | CCOc1nc2cccc(C(=O)OC(C)OC(=O)OC(C)C)c2n1Cc1ccc(-c2ccccc2)c(-c2nnn[nH]2)c1 (centres unmarked) [Working Example 56, 1-(Isopropoxycarbonyloxy)ethyl 2-ethoxy-1-[[2-(1 H-tetrazol-5-yl)biphenyl-4-yl]methyl]benzimidazole-7-carboxylate] | – |
| 136 to 138 °C | CCOc1nc2cccc(C(=O)OCOC(=O)C3CCCC3)c2n1Cc1ccc(-c2ccccc2-c2nnn[nH]2)cc1 [Working Example 61, Cyclopentylcarbonyloxymethyl 2-ethoxy-1-[[2′-(1 H-tetrazol-5-yl)biphenyl-4-yl]methyl]benzimidazole-7-carboxylate] | – |
| 146 to 147 °C | CCOc1nc2cccc(C(=O)OCOC(=O)/C=C/c3ccccc3)c2n1Cc1ccc(-c2ccccc2-c2nnn[nH]2)cc1 [Working Example 60, (E)-cinnamoyloxymethyl 2-ethoxy-1-[[2′-(1 H-tetrazol-5-yl)biphenyl-4-yl]methyl]benzimidazole-7-carboxylate] | – |
| 149 to 152 °C | CCNc1nc2cccc(C(=O)OC(C)OC(=O)OC3CCCCC3)c2n1Cc1ccc(-c2ccccc2-c2nnn[nH]2)cc1 (centres unmarked) [Working Example 63, 1-(Cyclohexyloxycarbonyloxy)ethyl 2-ethylamino-1-[[2′-(1 H-tetrazol-5-yl)biphenyl-4-yl]methyl]benzimidazole-7-carboxylate] | – |
